{"source": "patent US9457106B2", "about": "“Cancer therapy” (priority 2011, dated 2016)", "key": {"[1]": {"conditions": "cited from earlier work; for Maximum particle energy: beta particles"}, "[2]": {"conditions": "for Formation of a precipitate: 1 mL calcium chloride solution (50 mM) added to 10 mL of 100 mM phosphate solution"}}, "note": "Like-named read-outs stand apart in the source and are kept apart here."}
{"compound": "[131IH]", "note": "[iodine-131]", "values": [{"measurement": "Half-life", "setting": "[1]; beta emitters", "value": 8.04, "unit": "days"}, {"measurement": "Maximum particle energy", "setting": "[1]", "value": 0.61, "unit": "MeV"}]}
{"compound": "[103Pd]", "note": "[palladium-103]", "values": [{"measurement": "Half-life", "setting": "[1]; electron capture emitters", "value": 17, "unit": "days"}, {"measurement": "Particle energy", "setting": "[1]; electron capture emitters", "value": 0.05, "unit": "MeV"}]}
{"compound": "[125IH]", "note": "[iodine-125]", "values": [{"measurement": "Half-life", "setting": "[1]; electron capture emitters", "value": 60, "unit": "days"}, {"measurement": "Particle energy", "setting": "[1]; electron capture emitters", "value": 0.035, "unit": "MeV"}]}
{"compound": "phosphorus-32", "values": [{"measurement": "Half-life", "setting": "[1]; beta emitters", "value": "approximately 14 days"}, {"measurement": "Maximum particle energy", "setting": "[1]", "value": 1.71, "unit": "MeV"}]}
{"compound": "[89Sr]", "note": "[strontium-89]", "values": [{"measurement": "Half-life", "setting": "[1]; beta emitters", "value": 51, "unit": "days"}, {"measurement": "Maximum particle energy", "setting": "[1]", "value": 1.46, "unit": "MeV"}]}
{"compound": "O=P([O-])([O-])O.[Na+].[Na+]", "note": "[disodium hydrogen phosphate]", "values": [{"measurement": "Formation of a precipitate", "setting": "[2]", "value": "heavy visible precipitate"}]}
{"compound": "[90Y]", "note": "[yttrium-90]", "values": [{"measurement": "Half-life", "setting": "[1]; beta emitters", "value": 2.68, "unit": "days"}, {"measurement": "Maximum particle energy", "setting": "[1]", "value": 2.27, "unit": "MeV"}]}
{"compound": "[153Sm]", "note": "[samarium-153]", "values": [{"measurement": "Half-life", "setting": "[1]; beta emitters", "value": 1.96, "unit": "days"}, {"measurement": "Maximum particle energy", "setting": "[1]", "value": "0.7 (>50%) MeV"}]}
{"compound": "[103Ru]", "note": "[ruthenium-103]", "values": [{"measurement": "Half-life", "setting": "[1]; beta emitters", "value": 40, "unit": "days"}, {"measurement": "Maximum particle energy", "setting": "[1]", "value": 0.214, "unit": "MeV"}]}
{"compound": "O=P([O-])(O)O.[Na+]", "note": "[sodium dihydrogen phosphate]", "values": [{"measurement": "Formation of a precipitate", "setting": "[2]", "value": "no precipitate was formed"}, {"measurement": "Amount of precipitate formed as a function of sodium hydroxide (0.05 M) added", "setting": "[2]; 50 mL sodium dihydrogen phosphate (100 mM) and 5 mL calcium chloride (50 mM)", "value": "a precipitate of calcium phosphate begins to form"}]}
